Test results taken from ChEMBL document CHEMBL1201862, “PubChem BioAssay data set” (2004).
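Briefly, cells in 96-well plates were exposed to five compound concentrations for 48 h, and endpoints were estimated by linear interpolation. GI50 is the concentration that inhibits growth by half.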 Active and inactive are the calls of the source. No stated cut-off is given here; in the data, active = GI50 up to about 1.1 µM and inactive = higher.

How the values were obtained:
Experiment in all cases: NCI anticancer screen, dose series, 48 h
NCI-H23 = tested on: NCI-H23
SF-268 = tested on: SF-268
HT-29 = tested on: HT-29
SNB-75 = tested on: SNB-75
SK-MEL-2 = tested on: SK-MEL-2
RXF 393 = tested on: RXF 393
SK-MEL-28 = tested on: SK-MEL-28
UO-31 = tested on: UO-31
OVCAR-5 = tested on: OVCAR-5
RPMI-8226 = tested on: RPMI-8226
HCC 2998 = tested on: HCC 2998
SF-295 = tested on: SF-295
MOLT-4 = tested on: MOLT-4
A549 = tested on: A549
A498 = tested on: A498
KM12 = tested on: KM12
SN12C = tested on: SN12C
DLD-1 = tested on: DLD-1
DMS-273 = tested on: DMS-273
EKVX = tested on: EKVX
CAKI-1 = tested on: CAKI-1
OVCAR-4 = tested on: OVCAR-4
CCRF-CEM = tested on: CCRF-CEM
LXFL 529 = tested on: LXFL 529
DMS-114 = tested on: DMS-114
OVCAR-3 = tested on: OVCAR-3
K562 = tested on: K562
SK-OV-3 = tested on: SK-OV-3
M19-MEL = tested on: M19-MEL
IGROV-1 = tested on: IGROV-1
XF498 = tested on: XF498
HOP-92 = tested on: HOP-92
HL-60 = tested on: HL-60
HCT-116 = tested on: HCT-116
UACC-257 = tested on: UACC-257
SW-620 = tested on: SW-620
KM-20L2 = tested on: KM-20L2
Malme-3M = tested on: Malme-3M
NCI-H460 = tested on: NCI-H460
ACHN = tested on: ACHN
SK-MEL-5 = tested on: SK-MEL-5
U-251 = tested on: U-251
TK-10 = tested on: TK-10
NCI-H522 = tested on: NCI-H522
786-0 = tested on: 786-0
HCT-15 = tested on: HCT-15
UACC-62 = tested on: UACC-62
SNB-19 = tested on: SNB-19
HOP-18 = tested on: HOP-18
LOX IMVI = tested on: LOX IMVI
M14 = tested on: M14
OVCAR-8 = tested on: OVCAR-8
COLO 205 = tested on: COLO 205
HOP-62 = tested on: HOP-62
SR = tested on: SR
SNB-78 = tested on: SNB-78
NCI-H226 = tested on: NCI-H226

Compound: CCOC(=O)C(=O)/C=C(\C)Nc1c(NC2OCC(OC(C)=O)C(OC(C)=O)C2OC(C)=O)nc(SC)[nH]c1=O (centres undefined)
- GI50 (NCI-H23): > 100 µM (inactive)
- GI50 (SF-268): > 100 µM (inactive)
- GI50 (HT-29): > 100 µM (inactive)
- GI50 (SNB-75): > 100 µM (inactive)
- GI50 (SK-MEL-2): > 100 µM (inactive)
- GI50 (RXF 393): > 100 µM (inactive)
- GI50 (SK-MEL-28): > 100 µM (inactive)
- GI50 (UO-31): > 100 µM (inactive)
- GI50 (OVCAR-5): > 100 µM (inactive)
- GI50 (RPMI-8226): > 100 µM (inactive)
- GI50 (HCC 2998): > 100 µM (inactive)
- GI50 (SF-295): > 100 µM (inactive)
- GI50 (MOLT-4): > 100 µM (inactive)
- GI50 (A549): > 100 µM (inactive)
- GI50 (A498): > 100 µM (inactive)
- GI50 (KM12): > 100 µM (inactive)
- GI50 (SN12C): > 100 µM (inactive)
- GI50 (DLD-1): > 100 µM (inactive)
- GI50 (DMS-273): > 100 µM (inactive)
- GI50 (EKVX): > 100 µM (inactive)
- GI50 (CAKI-1): > 100 µM (inactive)
- GI50 (OVCAR-4): > 100 µM (inactive)
- GI50 (CCRF-CEM): > 100 µM (inactive)
- GI50 (LXFL 529): > 100 µM (inactive)
- GI50 (DMS-114): > 100 µM (inactive)
- GI50 (OVCAR-3): > 100 µM (inactive)
- GI50 (K562): > 100 µM (inactive)
- GI50 (SK-OV-3): > 100 µM (inactive)
- GI50 (M19-MEL): > 100 µM (inactive)
- GI50 (IGROV-1): > 100 µM (inactive)
- GI50 (XF498): > 100 µM (inactive)
- GI50 (HOP-92): > 100 µM (inactive)
- GI50 (HL-60): > 10 µM (inactive)
- GI50 (HCT-116): > 100 µM (inactive)
- GI50 (UACC-257): > 100 µM (inactive)
- GI50 (SW-620): > 100 µM (inactive)
- GI50 (KM-20L2): > 100 µM (inactive)
- GI50 (Malme-3M): > 100 µM (inactive)
- GI50 (NCI-H460): > 100 µM (inactive)
- GI50 (ACHN): > 100 µM (inactive)
- GI50 (SK-MEL-5): > 100 µM (inactive)
- GI50 (U-251): > 100 µM (inactive)
- GI50 (TK-10): > 100 µM (inactive)
- GI50 (NCI-H522): > 100 µM (inactive)
- GI50 (786-0): > 100 µM (inactive)
- GI50 (HCT-15): > 100 µM
- GI50 (UACC-62): > 100 µM (inactive)
- GI50 (SNB-19): > 100 µM (inactive)
- GI50 (HOP-18): > 100 µM (inactive)
- GI50 (LOX IMVI): > 100 µM (inactive)
- GI50 (M14): > 100 µM (inactive)
- GI50 (OVCAR-8): > 100 µM (inactive)
- GI50 (COLO 205): > 100 µM (inactive)
- GI50 (HOP-62): > 100 µM (inactive)
- GI50 (SR): > 100 µM (inactive)

Compound: O=C(CSc1nnc(-c2ccc(/N=C\c3ccc(Cl)cc3)cc2)o1)Nc1ccccc1Cl
- GI50 (NCI-H23): > 100 µM (inactive)
- GI50 (SF-268): > 100 µM (inactive)
- GI50 (HT-29): > 100 µM (inactive)
- GI50 (SNB-75): > 100 µM (inactive)
- GI50 (SK-MEL-2): > 100 µM (inactive)
- GI50 (RXF 393): > 100 µM (inactive)
- GI50 (SK-MEL-28): > 100 µM (inactive)
- GI50 (UO-31): > 100 µM (inactive)
- GI50 (RPMI-8226): > 100 µM (inactive)
- GI50 (SF-295): > 100 µM (inactive)
- GI50 (MOLT-4): > 100 µM (inactive)
- GI50 (A549): > 100 µM (inactive)
- GI50 (KM12): > 100 µM (inactive)
- GI50 (SN12C): > 10 µM (inactive)
- GI50 (DMS-273): > 100 µM (inactive)
- GI50 (EKVX): > 100 µM (inactive)
- GI50 (OVCAR-4): > 100 µM (inactive)
- GI50 (CCRF-CEM): > 100 µM (inactive)
- GI50 (SNB-78): 60.8 µM (inactive)
- GI50 (LXFL 529): > 100 µM (inactive)
- GI50 (DMS-114): > 100 µM (inactive)
- GI50 (K562): > 100 µM (inactive)
- GI50 (SK-OV-3): > 100 µM (inactive)
- GI50 (M19-MEL): > 100 µM (inactive)
- GI50 (XF498): > 100 µM (inactive)
- GI50 (HL-60): > 100 µM (inactive)
- GI50 (HCT-116): > 100 µM (inactive)
- GI50 (UACC-257): 20.7 µM (inactive)
- GI50 (SW-620): > 100 µM (inactive)
- GI50 (KM-20L2): > 100 µM (inactive)
- GI50 (Malme-3M): > 100 µM (inactive)
- GI50 (NCI-H226): > 100 µM (inactive)
- GI50 (NCI-H460): > 100 µM (inactive)
- GI50 (ACHN): > 100 µM (inactive)
- GI50 (SK-MEL-5): > 100 µM (inactive)
- GI50 (U-251): > 100 µM (inactive)
- GI50 (TK-10): > 100 µM (inactive)
- GI50 (NCI-H522): > 100 µM (inactive)
- GI50 (786-0): > 100 µM (inactive)
- GI50 (HCT-15): > 100 µM
- GI50 (UACC-62): > 100 µM (inactive)
- GI50 (SNB-19): > 100 µM (inactive)
- GI50 (HOP-18): > 100 µM (inactive)
- GI50 (LOX IMVI): > 100 µM (inactive)
- GI50 (M14): > 100 µM (inactive)
- GI50 (OVCAR-8): > 100 µM (inactive)
- GI50 (COLO 205): > 100 µM (inactive)
- GI50 (HOP-62): > 100 µM (inactive)
- GI50 (SR): > 100 µM (inactive)
